17 molecules from patent US8426436B2, “Heterocyclic cyclopamine analogs and methods of use thereof” (Infinity Discovery, Inc., priority 2007, dated 2013) can be followed below.

Bounds are passed on as bounds.

One assay relates to Hedgehog pathway. The experiment in a line: C3H10T1/2 osteoblast differentiation assay (alkaline phosphatase readout, Shh-induced). It counts as cell-based. As to conditions: Mus musculus, C3H 10T1/2; C3H10T1/2 cells, sonic Hedgehog 250 ng/ml, AP activity normalized to total protein; approximate EC50 for inhibition. The text has this: Hedgehog pathway specific cancer cell killing effects may be ascertained using the following assay. C3H10T1/2 cells differentiate into osteoblasts when contacted with the sonic hedgehog peptide (Shh-N). Upon differentiation, these osteoblasts produce high levels of alkaline phosphatase (AP) which can be measured in an enzymatic assay (Nakamura, et al., BBRC (1997) 237:465). Compounds that block the differentiation of C3H10T1/2 into osteoblasts (a Shh dependent event) can therefore be identified by a reduction in AP production (van der Horst, et al., Bone (2003) 33:899). The assay details are described below. The results approximate (EC50 for inhibition) of the differentiation assay is shown below in Table 1.
Mouse embryonic mesoderm fibroblasts C3H10T1/2 cells (obtained from ATCC) were cultured in Basal MEM Media (Gibco/Invitrogen) supplemented with 10% heat inactivated FBS (Hyclone), 50 units/ml penicillin and 50 ug/ml streptomycin (Gibco/Invitrogen) at 37° C. with 5% CO2 in air atmosphere.
Alkaline Phosphatase Assay C3H10T1/2 cells were plated in 96 wells with a density of 8×10^3 cells/well. Cells were grown to confluence (72 hrs). After sonic Hedgehog (250 ng/ml), and/or compound treatment, the cells were lysed in 110 μL of lysis buffer (50 mM Tris pH 7.4, 0.1% TritonX100), plates were sonicated and lysates spun through 0.2 μm PVDF plates (Corning). 40 μL of lysates was assayed for AP activity in alkaline buffer solution (Sigma) containing 1 mg/ml p-Nitrophenyl Phosphate. After incubating for 30 min at 37° C., the plates were read on an Envision plate reader at 405 nm. Total protein was quantified with a BCA protein assay kit from Pierce according to manufacturer's instructions. AP activity was normalized against total protein.

The next assay has as its system BxPC-3 cells. Description: BxPC-3 human pancreatic subcutaneous tumor model, tumor volume. As to conditions: BxPC-3 subcutaneous, orally 40 mg/kg/day, 25 daily doses, p=0.0437. It is filed as in vivo, mice. As for the experimental part: (§1) The activity of Compound 10 was further tested in a human pancreatic model: BxPC-3 cells were implanted subcutaneously into the flanks of the right legs of mice. On day 42 post-tumor implant, the mice were randomized into two groups to receive either Vehicle (30% HPBCD) or Compound 10. Compound 10 was administered orally at 40 mg/kg/day. […] At the end of the study, the tumors were harvested 4 hours post the last dose to evaluate an on target response by q-RT-PCR analysis of the HH pathway genes.

Assay [1] has as its system PANC-1 pancreatic cancer cells. Description: PANC-1 orthotopic pancreatic cancer model, tumor weight. It is filed as in vivo. As to conditions: 40 mg/kg/day, 5 weeks (35 doses), p=0.00014. As for the experimental part:
(§2) The activity of Compound 10 was also tested in another model of pancreatic cancer in which the PANC-1 pancreatic cancer cells were implanted into the orthotopic site, that is, directly into the pancreas. At the end of 5 weeks of dosing, 40 mg/kg/day (a total of 35 doses), tumor growth was monitored by weighing the tumors as they were removed from the animals. There was a statistically significant (p=0.00014) difference between the Compound 10 and vehicle treated animals which was seen as a 47% decrease in tumor weight in the Compound 10 treated animals. In addition, tumor tissue was harvested and RNA was isolated 24 hours after the final dose of Compound 10.

A further assay concerns medulloblastoma. The experiment in a line: Ptch1/Hic1 medulloblastoma subcutaneous allograft model, tumor growth. It is filed as in vivo, mouse. Here is the method:
(§3) The activity of Compound 10 was evaluated in a transgenic mouse model of medulloblastoma. Mice that are heterozygous for loss of function mutations in the tumor suppressors Patched1 (Ptch1) and Hypermethylated in Cancer (Hic1) develop spontaneous medulloblastoma. […] When passaged as subcutaneous allografts, these tumors grow aggressively and are Hedgehog pathway-dependent. This model was employed to evaluate the efficacy of orally administered Compound, and to correlate activity with drug exposure in plasma and tumors.
The approximate effective daily oral dose for 50% inhibition of tumor growth (ED50) is […] 8 mg/kg.

The next assay concerns murine Gli-1 mRNA. Description: q-RT-PCR of HH pathway genes in harvested BxPC-3 tumors, murine Gli-1. As to conditions: BxPC-3 tumors harvested 4 hours post last dose, 40 mg/kg/day oral. It is filed as in vivo. Here is the method: as §1
A further assay relates to human Gli-1. Description: q-RT-PCR of HH pathway genes in harvested BxPC-3 tumors, human Gli-1. It counts as in vivo. As to conditions: BxPC-3 tumors harvested 4 hours post last dose, 40 mg/kg/day oral. Here is the method: as §1
In another assay the test system is Gli-1 mRNA. The experiment in a line: Ptch1/Hic1 medulloblastoma subcutaneous allograft model, Gli-1 mRNA expression. It counts as in vivo, mouse. As to conditions: single oral (PO) dose, subcutaneously implanted tumors, 8 hours post dose. Here is the method: as §3
The test system of the next assay is human Gli-1 mRNA. The experiment in a line: Gli-1 mRNA analysis of PANC-1 tumor tissue, human Gli-1. It is filed as in vivo. As to conditions: RNA isolated 24 hours after final dose. Here is the method:
as §2

Another assay deals with murine Gli-1. The experiment in a line: Gli-1 mRNA analysis of PANC-1 tumor tissue, murine Gli-1. As to conditions: RNA isolated 24 hours after final dose. It counts as in vivo. Here is the method:
as §2

`CC(=O)N1C[C@@H](C)C[C@H]2O[C@]3(CC[C@@H]4C(=C(C)C3)C[C@H]3[C@H]4CC[C@@H]4Cc5n[nH]cc5C[C@@]43C)[C@H](C)[C@@H]21` [Compound 14] had an EC50 in the assay with Hedgehog pathway of 20 to 100 nM. Regarding `CC1=C2C[C@H]3[C@@H](CC[C@@H]4Cc5n[nH]cc5C[C@@]43C)[C@@H]2CC[C@@]2(C1)O[C@@H]1C[C@H](C)CN[C@H]1[C@H]2C` [Compound 10], the “reduction of tumor volume growth compared to vehicle control” value in the assay on BxPC-3 cells was found to be 37%. The “decrease in tumor weight vs vehicle” value in assay [1] amounted to 47%. Further, the 50% effective dose (ED50) in the assay on medulloblastoma (Mus musculus, daily oral dosing, read-out: approximate effective daily oral dose for 50% inhibition of tumor growth (ED50)) was approximately 8 mg/kg. For the same molecule, the tumor growth effect entry with medulloblastoma (daily (QD) PO administration) is “dose dependent inhibition of tumor growth, with frank tumor regression seen at higher doses”. Moreover, in the assay with medulloblastoma (treated QD for 21 days), the “long term survival following cessation of treatment” value is given as more than 19 days and the “tumor re-growth after cessation of treatment” value is “little to no tumor re-growth”. In the assay with murine Gli-1 mRNA, the “murine Gli-1 mRNA levels vs vehicle” value is reported as “robust down-regulation”. In the assay on human Gli-1, the “human Gli-1 modulation (q-RT-PCR)” value is on record as “no modulation”. The molecule also gave an EC50 in the assay with Hedgehog pathway of less than 20 nM. Besides, in the assay with Gli-1 mRNA, the “HH pathway regulation measured by Gli-1 mRNA expression” value was “dose-dependent down-regulation”. The “human Gli-1 mRNA modulation” value in the assay on human Gli-1 mRNA is recorded as “no modulation”. Moreover, the “murine Gli-1 modulation” value with murine Gli-1 is on record as “did reveal modulation”. In the assay on Hedgehog pathway, `C[C@@H]1CN[C@H]2[C@@H](C)[C@@]3(CC[C@@H]4C(C[C@H]5[C@H]4CC[C@@H]4Cc6[nH]ncc6C[C@@]45C)C3)O[C@@H]2C1` (stereo partly shown) [Compound 17] gave an EC50 of 20 to 100 nM. Molecule `CC1=C2C[C@H]3[C@@H](CC[C@@H]4Cc5[nH][nH]c(=O)c5C[C@@]43C)[C@@H]2CC[C@@]2(C1)O[C@@H]1C[C@H](C)CN[C@H]1[C@H]2C` [Compound 32] had an EC50 with Hedgehog pathway of more than 100 nM. In the assay on Hedgehog pathway, `CC1=C2C[C@H]3[C@@H](CC[C@@H]4Cc5nc(C)sc5C[C@@]43C)[C@@H]2CC[C@@]2(C1)O[C@@H]1C[C@H](C)CN[C@H]1[C@H]2C` [Compound 42] returned an EC50 of more than 100 nM.

In the assay on Hedgehog pathway, `CC1=C2C[C@H]3[C@@H](CC[C@H]4Cc5[nH]ncc5C[C@@]43C)[C@@H]2CC[C@@]2(C1)O[C@@H]1C[C@H](C)CN[C@H]1[C@H]2C` [Compound 45] came in with an EC50 of more than 100 nM. For the molecule `CC1=C2C[C@H]3[C@@H](CC[C@@H]4Cc5nn(C)cc5C[C@@]43C)[C@@H]2CC[C@@]2(C1)O[C@@H]1C[C@H](C)CN[C@H]1[C@H]2C` [Compound 11], the EC50 in the assay with Hedgehog pathway was in the range of 20 to 100 nM. In the assay with Hedgehog pathway, `CC1=C2C[C@H]3[C@@H](CC[C@@H]4Cc5[nH]ncc5C[C@@]43C)[C@@H]2CC[C@]12O[C@@H]1C[C@H](C)CN[C@H]1[C@H]2C` [Compound 19] yielded an EC50 of more than 100 nM. `CC1=C2C[C@H]3[C@@H](CC[C@@H]4Cc5nn(S(=O)(=O)c6ccc(C)cc6)cc5C[C@@]43C)[C@@H]2CC[C@@]2(C1)O[C@@H]1C[C@H](C)CN[C@H]1[C@H]2C` [Compound 43] had an EC50 in the assay on Hedgehog pathway of more than 100 nM.

In turn, `CC1=C2C[C@H]3[C@@H](CC[C@@H]4Cc5n[nH]cc5C[C@@]43C)[C@@H]2CC[C@@]2(C1)O[C@@H]1C[C@H](C)CN(C)[C@H]1[C@H]2C` [Compound 13] gave an EC50 in the assay with Hedgehog pathway of 20 to 100 nM. In the assay on Hedgehog pathway, `CC1=C2C[C@H]3[C@@H](CC[C@@H]4Cc5nn(S(C)(=O)=O)cc5C[C@@]43C)[C@@H]2CC[C@@]2(C1)O[C@@H]1C[C@H](C)CN[C@H]1[C@H]2C` [Compound 12] registered a half-maximal effective concentration (EC50) of more than 100 nM. The same measure, in the same setting: the same measure for `CC1=C2C[C@H]3[C@@H](CC[C@@H]4Cc5[nH]ncc5C[C@@]43C)[C@@H]2CC[C@@]2(C1)O[C@@H]1C[C@H](C)CN(S(N)(=O)=O)[C@H]1[C@H]2C` [Compound 44]: 20 to 100 nM; for `CC1=C2C[C@H]3[C@@H](CC[C@@H]4Cc5nn(S(C)(=O)=O)cc5C[C@@]43C)[C@@H]2CC[C@@]2(C1)O[C@@H]1C[C@H](C)CN(S(C)(=O)=O)[C@H]1[C@H]2C` [Compound 41]: more than 100 nM; for `CC1=C2C[C@H]3[C@@H](CC[C@@H]4Cc5n[nH]cc5C[C@@]43C)[C@@H]2CC[C@@]2(C1)O[C@@H]1C[C@H](C)CN(O)[C@H]1[C@H]2C` [Compound 31]: 20 to 100 nM. In the assay on Hedgehog pathway, `CC1=C2C[C@H]3[C@@H](CC[C@@H]4Cc5n[nH]c(C(F)(F)F)c5C[C@@]43C)[C@@H]2CC[C@@]2(C1)O[C@@H]1C[C@H](C)CN[C@H]1[C@H]2C` [Compound 15] yielded an EC50 of more than 100 nM. In the assay with Hedgehog pathway, `CC1=C2C[C@H]3[C@@H](CC[C@@H]4Cc5nocc5C[C@@]43C)[C@@H]2CC[C@@]2(C1)O[C@@H]1C[C@H](C)CN[C@H]1[C@H]2C` [Compound 1] showed an EC50 of 20 to 100 nM. In turn, `CC1=C2C[C@H]3[C@@H](CC[C@@H]4Cc5[nH]ncc5C[C@@]43C)[C@@H]2CC[C@@]2(C1)O[C@@H]1C[C@H](C)CN(S(C)(=O)=O)[C@H]1[C@H]2C` [Compound 40] yielded an EC50 in the assay with Hedgehog pathway of 20 to 100 nM.
